Results published in US20060257875A1, “Affinity screening using "one-bead-one-compound" libraries” (Carlsberg A/S, priority 2003, published 2006).
Non-standard residues stand in square brackets, D forms with d. No end group written: not given here. T(Sa) = sialic acid threonine lactam (threonine bearing sialic acid, its amine closed onto the sugar)

Experiments:
[1] = test system: normal/healthy myocyte proteins; assay: Solid phase screening of small molecule biaryl Library 7 with labeled myocyte proteins; assay type: binding, neonatal Wistar rats; conditions: Normal Myocytes
Procedure: (§1) Myocytes were prepared from 1 to 5 day old neonatal Wistar rats (University of Copenhagen) according to literature procedure described in Busk et al., 2002, Cardiovasc. Res., 56: 64-75 and plated into eight P10 culture plates at 6 million cells/plate.
In another case, fluorescent dye Cyanine 3 (Cy 3) (Molecular Probes) was used to label the healthy/basal cells while Cyanine 2 (Cy 2) (Molecular Probes) was used to label the PE-treated cells. The labeling procedures were carried out according to the manufacturer's protocol. The protein solutions (0.35 mL, 100 μg for PE cells and 0.41 mL, 100 μg for basal cells) were dialyzed against a solution of 10 mM phosphate buffer, 0.15 M NaCl, pH 7.5 and then 1 M NaHCO3 (0.03-0.04 mL) was added to obtain a final pH between 8.0-9.0. For efficient labeling, […] fluor (5 μL solution was prepared by addition of […] of reconstituted fluorophore solution [1 nmol μL] and 3 μL of dry DMF) was used to label 50 μg of protein. The fluorophore and the protein solution are mixed thoroughly by vortexing. The samples are then centrifuged briefly in a microfuge and left on ice for 30 min in the dark. To stop the reaction, 10 mM lysine (1 μL) was added to the samples and the samples were mixed by vortexing and centrifuged briefly in a microfuge. The samples were left on ice for 10 min in the dark. The labeled protein solutions were dialyzed extensively against 10 mM phosphate buffer, 0.15 M NaCl, pH 7.5, to remove excess dye. Labeled samples were stored for at −70° C. in the dark until further use.
Alternatively, the fluorescent ligand library beads containing bound protein obtained as described in Examples 47, 48, 49 and 51 were sorted using a COPAS (250) NF Bead Sorter (Union Biometrica, Somerville, Mass.) equipped with a dual detector. Both the cyanine dyes used in the labeling procedure, namely Cy 2 (emission wavelength—510 nm) and Cy 3 (emission wavelength—570 nm) were simultaneously excited at […] The bead selection window was then set-up such that all beads containing significant green fluorescence and no red flourescence were isolated. The unselected beads were then resorted to obtain beads containing red fluorescence (proteins from basal cells). The selected red and green fluorescent beads were then sorted into brightly and less brightly fluorescent beads, to give an indication of either the strength of binding of the ligand to a particular protein or the amount of protein present in the sample binding to the ligand.
(§2) Ligands can be completely or partially identified by MALDI_TOF-MS whether or not the library is synthesized by ladder synthesis. […] The ligand is cleaved from the resin bead depending on the type of linker used. […] Peptide fragments (ladder synthesis) or single compounds were extracted from the bead with 0.5 AL CH3CN, then 0.5 FL 70% CH3CN/H2O. […] In the case of the acid labile Rink linker (Library 7), the compound was released from the bead by treatment with 95% TFA or 30 min. The TFA solution was evaporated and the cleaved compounds were extracted in 2 μL 70% acetonitrile+0.1% TFA. This mixture was then transferred to a stainless steel disc to which 0.4 μL of CHC matrix+1.0% TFA was added. An additional 0.4 μL of CHC matrix+1.0% TFA was added to complete sample application.
A typical analysis employed 100-300 laser shots. […] The possible identity of the ligand was determined (Narrowed down) by comparing the recorded mass of the ligand with the masses of all possible compounds formed in the library. […]

[2] = test system: E. coli membrane proteins; assay: Solid phase screening of Library 2 with labeled E. coli membrane proteins; bound proteins identified by tryptic digest and peptide mass fingerprinting; assay type: binding, Escherichia coli DH 5α-136; conditions: Library 2 ligand on bead
Procedure: A 400 mL culture of Escherichia coli DH 5α-136 (Carlsberg Research Center Collection) was prepared according to the procedures described in Hanahan, 1985, In: DNA Cloning, Vol 1, Glover, D., ed., IRL Press Ltd, pp. 109-135. […]. The media containing extracellular protein was retained and the pellet washed once with PBS, pH 7.6 (cellular weight=2.22g).
Isolation of E. coli membrane proteins was achieved through modification of published literature procedures: Auer, et al., 2001, Biochemistry, 40:6628-6635, and Molloy, et al., 2000, Eur. J. Biochem. 267:2871-2881. After incubation of E. coli cells for 2 days, washed cells were scraped from plates and centrifuged as described above for Example 10. The cell pellet (approximately 1 g) was suspended in 50 mM Tris HCl, pH 7.5 and pressed (2×) in a French Press at 1500 Psi. The resulting suspension was centrifuged at 2500×g for 10 minutes. The ice cold supernatant was diluted with 2.5 ml of ice-cold 0.1 M sodium carbonate buffer 11 and the solution stirred on ice for 1 hour. Ultracentrifugation was then carried out at 115, 000×g for 1 to 1.5 hours at 4° C., yielding Pellet 1 and Supernatant 1. The membrane pellet 1 was resuspended in 50 mM Tris HCl, pH 7.5 and the pellet was recollected after centrifugation for an additional 20 minutes at 115,000×g, yielding Pellet 2 and supernatant 2. Pellet 2 was solubilized in 50 mM Tris HCl, pH 7.5 containing 10 MM imidazole, 0.5 mM PMSF, 20% glycerol, and 1% Dodecyl Maltoside (DM) or 33 mM Octyl Glucoside (OG) for 30 mninutes at 4° C. The suspension was then centrifuged for 10,000 g for 30 minutes. The pellet and supernatant obtained were labeled Pellet 3 and supernatant 3.
The protein was labeled with amino reactive succinylanthranilate dye (blue) DDM (0.49 mg dye) and OG (0.03 mg dye) according to the same protocol used in the extracellular labeling described above for Example 12. The labeling stopping reaction (hydroxylamine hydrochloride addition) was not used in this case, to avoid dilution of the protein. The mixture was dialyzed overnight against 10 mM PBS buffer, pH 6.8 containing 0.01 MM ZnCl2, 0.01 mM CaCl2, 0.01 mM MnCl2, and 0.01 mM MnSO4, against a three time buffer change.
The ligand library was then washed, and E. coli labeled membrane protein, prepared as described above for Example 13, was added (0.1 ml). The ligand library and protein mixture was incubated overnight at room temperature.
as §2
A typical analysis employed 100-300 laser shots. […] A typical analysis employed 200-300 laser shots. The possible identity of the ligand was determined (Narrowed down) by comparing the recorded mass of the ligand with the masses of all possible compounds formed in the library. […]

[3] = test system: PE-induced myocyte protein; assay: Solid phase screening of Library 6 with unlabeled myocyte proteins; silver staining, on-bead tryptic digest; assay type: binding, neonatal Wistar rats; conditions: PE-Treated Myocytes
Procedure: as §1
Isolated proteins that bound to specific ligands were identified using peptide mass fingerprinting. Mass spectra were recorded on a Bruker Reflex m MALDI time-of-flight mass spectrometer (Bruker-Daltonics, Bremen, Germany) operated in the positive reflectron mode using delayed extraction. Measurements were performed using the following parameters: Power 83-84 V; lens 7.300. The sum of 200-300 shots was used for each spectrum.
The spectra were calibrated using bradykinin peptide. In some cases, internal mass calibration was performed using a porcine trypsin autolysis product Peptide masses were searched against peptide mass maps in the National Center for Biotechnology Information (NCBI) database using the following search engines found on the world wide web (www.) for each of: • MS-FIT (prospector.ucsf.edu/ucsfhtml/msfit.htm), • Profound (129.85.19.192/profound_biniWebProFound.exe), and • MASCOT (matrixscience.com).
A search was performed using the NCBI bacterial (E. coli) database and the mammalian databases for the isolated proteins from the E. coli and myocyte samples, respectively, and the Swiss Prot mammalian databases and the Swiss Prot viral databases were searched to identify the porcine macrophage proteins and proteins, respectively. A molecular mass range was estimated from 0-250 K Da, allowing a mass accuracy that varied from 0.1 Da (some cases 0.3 Da) for each peptide mass. A large pI range from 0-14 or 0-12 was considered for each search. If no proteins matched, the mass window was extended. Partial enzyme cleavages allowing for two missed cleavage sites and modification of cysteine by alkylation were considered in the search approaches. A protein was considered identified if the matched peptides covered at least 30% of the complete sequence. A match of less than 30% was considered in some cases, if prominent peaks were obtained. Usually, four or more peptides were used for identification. In some instances, hypothetical proteins or gene products, such as biochemical material, either RNA or protein, calculated from the expected expression of a gene and to which a function may be assigned based on sequence homology, were identified.
Protein was extracted from myocytes prepared as described above for Example 9, using a new procedure (to preserve the activity of metalloproteases) modified from existing protocols, primarily: Amott, et al., 1998, Anal. Biochem. 258: 1-18. The media was removed from plates and cells were washed with ice cold phosphate buffer (5 ml, 10 mM, pH 7.5, supplemented with 0.15 M NaCl,) to remove traces of media components. The adhered cells were treated for 10 minutes with ice cold phosphate buffer (2 mL, 10 mM, pH 7.5, augmented with 0.15 M NaCl, […] E-64, 10 μg/mL Leupeptin, and 10 μg/mL Pepstatin A). The cells were scraped off the plates and then lysed (on ice) in a sonicator (2×) using 10 seconds off/110 seconds on cycles.
The resulting suspension was augmented with CHAPS (1% w/v), KCl (50 mM), NaCl (0.5 M), ZnCl2 (0.1 mM), DTT (5 mM), and urea (2 M). After 10-15 minutes on ice, the solution was centrifuged for 10 minutes at 15,000 rpm at 4° C. The supernatant was removed and protein content quantified using the NanoOrange Protein test (Molecular Probes, Eugene, Oreg.): Total protein recovered: 195 μg for PE-induced cells and 200 μg for basal cells.
The protein solutions were dialyzed extensively against 20 mM MES (2-[N-Morpholino]ethanesulfonic acid) buffer pH 6.0, supplemented with 0.15 M NaCl and 1 mM ZnCl2 to remove excess detergent and urea. […]

[4] = test system: Serum induced Myocytes proteins; assay: Solid phase screening of Library 5 with labeled myocyte protein; assay type: binding, neonatal Wistar rats

O=C(NC1(C(=O)O)CCc2ccccc2C1)c1cccc(Br)n1 (centres unmarked)
Identified Protein(s) [1]: Gap junction beta-5 protein (Connexin 31.1), (Q02739); Hypothetical protein XP1'288677 )gi 208598980).

T(Sa)-F-V-W-H
Identified Protein(s) [2]: (P).

COc1ccc(Br)c(OC)c1C(=O)N1CCC(C(=O)O)(c2ccccc2)CC1 [drawing 202]
Identified Protein(s) [1]: Centaurin gamma (3) (Q96P47); Poly [ADP-ribose] poly- merase-1 (PARP-1) (ADPRT) (NAD(+) ADP- ribosyltransferase-1) (Poly[ADP-ribose] synthease-1) (P09874); Aortic preferentially expressed protein 1 (APEG-1) Aortic preferentially expressed protein 1 (APG1_RAT, Q63638).

CCOC(=O)C(CCc1ccccc1)NC(CCCCN)C(=O)N1CCC[C@H]1C(=O)O (some centres unmarked) [drawing 175]
Identified Protein(s) [3]: Angiotensin converting enzyme (P22967); U2 nuclear ribonucleoprotein auxiliary factor (gi 2842676).

T(Sa)-H-W-H-L ([T(Sa)]HWHL)
Identified Protein(s) [2]: (NaDPH) (gi 2121143).

CC(C)C(NC(CCCCN)C(=O)NCC(=O)O)C(C)C (centres unmarked)
Identified Protein(s) [3]: Glycogen ssynthase kinase-3 beta factor (AQ9WV60).

CC(=O)N(C[C@@H]1CN(Cc2ccc(C(=O)O)cc2)[C@H]2c3ccccc3C(=O)N12)C1(C(=O)O)CCCC1 [HY6]
Identified Protein(s) [4]: Myosin chain (Q63358); NF-kappa B-repressing factor (Transcription factor ITBA4 protein) (O15226).

CC(C)N1CCCC(CN[C@H]2CCCCN(CC(=O)O)C2=O)N2C(=O)c3ccccc3[C@H]12 (some centres unmarked) [HY9]
Identified Protein(s) [4]: Zinc finger protein 339 (Q9BRPO); DNA repair protein RAD52 homolog (P43351).

T(Sa)-H-I-G-Y
Identified Protein(s) [2]: 16129807/15831818) (LA, M)

CCCCCCNC(=O)C(CCCCN)NC(C(C)C)C(C)C (centres unmarked) [drawing 179]
Identified Protein(s) [3]: Heat Shock protein 70 kDa protein 12A (Q8KOU4).

CC(=O)N(C[C@@H]1CN(C(C)C)[C@H]2c3ccccc3C(=O)N12)[C@H]1CCCCN(CC(=O)O)C1=O [HY7]
Identified Protein(s) [4]: Zinc finger protein 339 (Q9BRPO); DNA repair protein RAD52 homolog (P43351).

COc1ccc(Br)c(OC)c1C(=O)N[C@@H](Cc1c[nH]c2ccccc12)C(=O)O
Identified Protein(s) [1]: Cutochrome P450 2C31 (CYPIIC31) (CPCV_CAPAE,Q29478); Fatty acid-binding protein, (FABPI, P0293); Similar to the alpha subunit of protein kinase CK2 (gi 28527943).

T(Sa)-H-W-V-V
Identified Protein(s) [2]: (M).

CCC(C)C(=O)N(C[C@@H]1CN(C(C)C)[C@H]2c3ccccc3C(=O)N12)[C@H]1CCCCN(CC(=O)O)C1=O (some centres unmarked) [HY8]
Identified Protein(s) [4]: Zinc finger protein 339 (Q9BRPO); DNA repair protein RAD52 homolog (P43351).

COc1ccc(Br)c(OC)c1C(=O)N1CCC(C(=O)O)(c2ccccc2)CC1 [drawing 209]
Identified Protein(s) [1]: Cutochrome P450 2C31 (CYPIIC31) (CPCV_CAPAE,Q29478); Fatty acid-binding protein, (FABPI, P0293); Similar to the alpha subunit of protein kinase CK2 (gi 28527943).

O=C(O)CC(NC(=O)c1ccc(-c2ccco2)o1)c1ccc(-c2ccccc2)cc1 (centres unmarked)
Identified Protein(s) [1]: Thyroid receptor interacting protein 11 (TRIP- 11,Q15643); Unnamed protein product (gi 26338976).

T(Sa)-F-G-L-M
Identified Protein(s) [2]: (M).
